Data on 88 compounds can be found in a melting point compilation (Tetko et al.; mined from patent text by program, amines drawn as free bases though some values may be those of a salt).

As usually defined, the melting point is the temperature, or range, at which the solid turns liquid.

In turn, `CN(c1ccccc1[N+](=O)[O-])S(=O)(=O)c1cccnc1Cl` had a melting point of 180 °C. The result for `CC(C)c1ccc(COc2ccc(CC(=O)O)cc2Cl)cc1` reads 146 to 148 °C.

Regarding `FC(F)(F)c1ccc(-n2ccc3c(Cl)nccc32)c(Cl)c1`, the melting point is 133 to 135 °C.

`CS(=O)(=O)NC(=O)c1cc(Oc2c(Cl)cc(Cl)cc2Cl)ccc1[N+](=O)[O-]` displayed a melting point of 228 °C. Take `CCCCc1ccc(NC(=O)CBr)c([N+](=O)[O-])c1`: the melting point lay within 56 to 57 °C. The result for `COc1ccc(C(=O)CCC(C(=O)c2ccc(OCc3ccccc3)cc2)c2ccc(OC)cc2)cc1` (stereo not drawn) reads 132 to 134 °C; that for `CCCCOc1cc(CCS(=O)(=O)NC(=O)OCCOC)n(Cc2ccc(Cl)cc2Cl)n1`, 82 to 86 °C; that for `CCCc1c(OCc2ccccc2)ccc2c(=O)ccoc12`, 87.5 to 89 °C. Next, `COC(=O)c1ccc(Cn2nnc3ccc(NC(=O)CC4CCCC4)cc32)c(OC)c1`: 206 to 208 °C; `Cc1noc(C)c1-c1ccc(OC2SCC(O)C(O)C2O)cc1` (stereo not drawn): 175 to 179 °C; `Cc1cc(Oc2ccc(C(F)(F)F)cc2Cl)cc(Cl)n1`: 75 °C. `O=C(Nc1n[nH]c(=S)s1)N[C@@H](Cc1ccccc1)C(=O)O` gave a melting point of 130 °C. Compound `CCCN1N=C(c2ccc(F)cc2)c2cc(Cl)ccc2CS1(=O)=O` registered a melting point of 122 °C.

Regarding `O=C1NC(=O)C(=Cc2ccc(SCc3ccccc3)cc2)S1`, the melting point fell in the range of 237 to 238 °C. The result for `CC(O)c1nc2c(OCc3ccccc3)cccc2n1C` (stereo not drawn) reads 148 to 150 °C; that for `Nc1nc2ccccc2c2c1ncn2CCCCNC(=O)c1ccc2ncccc2c1`, 122 to 127 °C; that for `O=C1Nc2ccc(Br)cc2C12CCNCC2`, 256 to 258 °C. Compound `CC(=O)C(=O)c1ccc(NS(C)(=O)=O)c(Sc2ccc(F)cc2F)c1` returned a melting point of 108 to 109 °C.

The compound `CC1=NC(SCc2ccccc2)=CC2=CN(C)NN21` gave a melting point of 108 to 111 °C.

In turn, `COc1cc2ccc(CCOS(C)(=O)=O)cc2cc1OC` came in with a melting point of 112 to 113 °C. Next, `CCCOc1c(C=NO)c(=O)n(C)c(=O)n1C`: 119 to 120 °C.

Turning to `CC1(C)Oc2ccc(S(=O)(=O)C(F)(F)C(F)(F)C(F)(F)F)cc2[C@@H](N)[C@@H]1O` (relative stereo), the melting point lay within 176 to 177 °C.

The compound `CC(=O)c1c(-c2ccccc2)[nH]c(-c2ccncc2)c1C` showed a melting point of 202 to 203 °C. As for `CCCCc1c(/C=C/C(=O)NCCCCCCc2cncnc2)cc(OC)c2ccccc12`, the melting point fell in the range of 128 to 129 °C. Next, `COc1ccc(-c2cc(C3CCCCC3)sc2-c2ccc(OC)cc2)cc1`: 95 to 98 °C; `COc1cc2c(c(Cl)c1Cl)C(=O)C(C)(c1ccc(F)cc1)C2` (stereo not drawn): 163 to 170 °C; `N#Cc1cccc2c1COc1ccc(OCc3ccc4cc(F)c(Cl)cc4n3)cc1C2SCCC(=O)O` (stereo not drawn): 125 to 128 °C. Next, `CC(=O)c1ccc(O)c(CCCc2ccccc2)c1O`: 120 to 122 °C; `CN(C)C1(c2ccccc2)CCC(CNC(=O)N2CC=C(c3c[nH]c4ccc(Cl)cc34)CC2)CC1` (stereo not drawn): 183 to 185 °C; `COC(=O)COC1c2ccccc2COc2ccc(OCc3ccc4cc(Cl)ccc4n3)cc21` (stereo not drawn): 144 to 147 °C. Next, `CC(C)NC(=N)NC(=N)NOCCCOc1ccc(OC(F)(F)F)cc1`: 154 to 155 °C; `CCCCOc1cc(CCS(=O)(=O)NC(=O)OCc2ccccc2)n(Cc2ccc(Cl)cc2Cl)n1`: 92 to 95 °C. `CNc1cc(N2CCc3ccccc32)cc(C)n1`: the melting point lay within 174 to 175 °C. The result for `N#Cc1cnn2c(C(F)(F)F)cc(-c3cccc(C(F)(F)F)c3)nc12` reads 192 °C; that for `COc1cccc2c(Cl)c(C)c(C)nc12`, 130 °C. The result for `O=c1ccn(CCO)c(C(O)c2cccnc2)c1O` (stereo not drawn) reads 189 to 190 °C; that for `CC1Cc2cc3c(cc2C(c2ccc([N+](=O)[O-])cc2)=NN1c1nc(=O)n(C)s1)OCO3` (stereo not drawn), 177 to 180 °C. The compound `Cc1nnc2cc(-c3ccccc3Cl)c3cc(Cl)ccc3n12` had a melting point of 257 to 259 °C.

Compound `COc1ccc(CC(SC)C(=O)OCc2ccccc2)cc1C(=O)NCc1ccc(C(F)(F)F)cc1` (stereo not drawn) had a melting point of 77 to 79 °C. The result for `COC(=O)CC1=CN=C(SC)NC1(C)O` (stereo not drawn) reads 200 °C; that for `O=C(Oc1ccc([N+](=O)[O-])cc1)Oc1ccc2oc3ccccc3c2c1`, 183 to 185 °C; that for `CC(C)(C)S(=O)(=O)CCOCCn1ccc2ncnc(Nc3ccc(Oc4cccc(C(F)(F)F)c4)c(Cl)c3)c21`, 79.5 to 81.5 °C. Next, `COC(=O)c1sc(Cl)nc1C(F)(F)F`: 32 to 34 °C; `Oc1ccc(C(=C2CCNCC2)c2ccccc2)cc1`: more than 260 °C. Next, `CCC1(CCCCN2CCN(c3cccc4c3OCCO4)CC2)C(=O)Nc2cc(F)ccc21` (stereo not drawn): 146 to 147 °C. In turn, `N#CSc1nsnc1Cl` yielded a melting point of 63 to 65 °C. The compound `C=CCSc1nc(=O)n(-c2ccsc2)cc1F` displayed a melting point of 125 to 127 °C. Turning to `Oc1ccc(CC2CC2(Cl)Cl)cc1` (stereo not drawn), the melting point lay within 57 to 62 °C. `CCOc1ccccc1NC(=O)C1Sc2ccc(Cl)cc2N(C)C1=O` (stereo not drawn) had a melting point of 124 to 126 °C. `O=C1Nc2ccccc2C12COc1c2ccc2c1OCCO2` (stereo not drawn) returned a melting point of more than 250 °C. The result for `CCOC(=O)c1c(CN(CC)CC)nc2sc3c(c2c1-c1ccc(OC)c(OC)c1)CCN(C(=O)c1ccccc1)C3` reads 86 to 87 °C; that for `OCCC1(CCO)c2ccccc2Oc2ccccc21`, 144 to 145 °C. In the case of `CC(C)c1cc2cc(O)ccc2c(Oc2ccc(/C=C/C(=O)O)cc2)c1-c1ccccc1`, the melting point is 198 to 199 °C. The result for `O=C(NCc1ncc(O)c2ccccc12)c1ccccc1` reads 130 to 131 °C; that for `Cc1nc2c(N)nc3ccccc3c2n1CCOCc1ccccc1`, 159 to 160 °C. Next, `COc1c(C)cnc(Cn2c(SC/C=C(\C)CCC=C(C)C)nc3ccccc32)c1C`: 76 to 80 °C. The result for `O=[N+]([O-])CS(=O)(=O)c1cccc2c1sc1ccccc12` reads 145 to 146 °C. In turn, `COc1ccc(Cn2c(=O)[nH]c3ccc(C)cc3c2=O)cc1` registered a melting point of 263 to 265 °C. Next, `O=[N+]([O-])c1ccccc1Oc1ccccc1Cl`: 48 to 49 °C; `CCc1cc(=O)n(CCC(C(=O)NO)N(C)S(=O)(=O)c2ccc(Oc3ccccc3)cc2)c(=O)[nH]1` (stereo not drawn): 177 to 179 °C. Regarding `CC1(C)NC(=O)N(CC(CS(=O)(=O)c2ccc(-c3ccc(OC(F)(F)F)cc3)cc2)N(O)C=O)C1=O` (stereo not drawn), the melting point was in the range of 195 to 197 °C. Regarding `CCC(=O)OCC(=O)C1(OC(=S)CC)CCC2C3CC(C)C4=CC(=O)C=CC4(C)C3C(O)CC21C` (stereo not drawn), the melting point fell in the range of 117 to 119 °C. Regarding `CCCS(=O)(=O)Nc1nc(CN2CCN(C(c3ccccc3)c3ccccc3)CC2)cs1`, the melting point was in the range of 165 to 167 °C. Compound `CCOC(=O)c1cc(C#N)c(C=O)nc1NC(C)CC` (stereo not drawn) had a melting point of 37 to 38 °C. Turning to `COc1cc(-c2[nH]c(SC)nc2-c2ccc(F)cc2)ccn1`, the melting point was 158 °C. Next, `COC(=O)C(C)(C)OCC#Cc1cc(C(F)(F)F)ccc1NS(=O)(=O)c1cc(C)cc(C)c1`: 128 to 130 °C. In turn, `Cc1ccc(Cn2nc(C(=O)O)cc2-c2ccc(F)cc2)cc1Cl` came in with a melting point of 120 °C. The result for `O=C(ON1C(=O)CCC1=O)c1ccc(-c2ccc(S(=O)(=O)N(CCO)CCO)cc2)[nH]c1=O` reads 213 to 216 °C. Next, `C=CCN1CC(c2ccc(N)cc2F)CCS1(=O)=O` (stereo not drawn): 96 °C; `NS(=O)(=O)c1ccc(C=O)cc1`: 104 to 106 °C; `COC(=O)[C@@H](O)[C@H](CC(C)C)NC(=O)OC(C)(C)C`: 84 to 85 °C. The result for `c1ccc2c(c1)Cn1cccc1-c1nccn1-2` reads 202 to 203 °C. As to `CCc1cc(-c2ccc(-c3cc(CCC(=O)NCc4cccnc4)[nH]n3)cc2)ccc1O`, the melting point lay within 210 to 214 °C.

For `CCn1cnc2c(Nc3cccc(Cl)c3)nc(Cl)nc21`, the melting point fell in the range of 127 to 128 °C. The result for `CCOC(=O)c1cc(Cl)c(F)c(Cl)c1` reads 59.5 to 60 °C; that for `CC(=O)Nc1cccc2c1CN(c1ccc3c(ccn3C)c1)C2=O`, 239 to 243 °C; that for `O=C(N1CCc2cc(O)c(O)cc2C(c2ccccc2)C1)C(F)(F)F` (stereo not drawn), 182 to 188 °C.

On to `OCCOC(c1ccccc1)(c1ccccc1)c1ccccc1`, for which the melting point lay in the range of 103 to 106 °C. Next, `Cc1c(N2CC(F)[C@](C)(N)C2)c(F)cc2c(=O)c(C(=O)O)cn([C@@H]3C[C@@H]3F)c12` (stereo partly drawn): 215 to 217 °C. Next, `CCOC(=O)c1cn(-c2nccs2)c2nc(Cl)cc(C(F)(F)F)c2c1=O`: 184 to 185 °C; `Cc1nc2c(N)nc3ccccc3c2n1CCCC1(C)OCCO1`: 193 to 195 °C. The result for `CCOC(=O)NCSSc1ccc([N+](=O)[O-])cc1C(Cl)(Cl)Cl` reads 90 to 91 °C; that for `O=c1c2ccc(O)cc2oc2c([N+](=O)[O-])ccc(Cl)c12`, 179 to 182 °C; that for `CC(C)CC(S)C(=O)NC1(C(=O)NC(Cc2ccc(-c3ccc(-c4cccc5ccccc45)cc3)cc2)C(=O)O)CCCC1` (stereo not drawn), 187 to 189 °C.

`CCOC(=O)c1cccc2c1Nc1ccc(C(=O)c3ccccc3)cc1N2C(=O)OC`: the melting point lay in the range of 112 to 115 °C.

In turn, `Cc1c(CCCCCC(=O)O)cccc1C(=O)c1ccc(Cl)cc1` returned a melting point of 82 °C. The result for `Cn1c(-c2ccc(Cl)c(S(N)(=O)=O)c2)csc1=Nc1ccc(O)cc1` reads 274 °C; that for `Cc1cnc(CCCCNc2ncc(Cc3ccc(C)nc3)c(=O)[nH]2)c(Cl)c1`, 140 to 142 °C.
